Assay results: ChEMBL document CHEMBL4177699, “Organoselenium compounds from purines: Synthesis of 6-arylselanylpurines with antioxidant and anticholinesterase activities and memory improvement effect” (Bioorg Med Chem, 2017)
Active and inactive are the calls of the source. No cut-off for these calls is given here.

What was measured:
[1] = target: T1, Acetylcholinesterase (Mus musculus) (UniProt P21836); experiment: (§1) Inhibition of AChE in Swiss mouse cerebral cortex homogenate using acetylthiocholine as substrate assessed as acetylthiocholine level per mg protein at 200 uM preincubated for 2 mins followed by substrate addition by DTNB based assay (reference value: 9.6 +/- 0.5 umol/hr)
T1 sequence (whole entry): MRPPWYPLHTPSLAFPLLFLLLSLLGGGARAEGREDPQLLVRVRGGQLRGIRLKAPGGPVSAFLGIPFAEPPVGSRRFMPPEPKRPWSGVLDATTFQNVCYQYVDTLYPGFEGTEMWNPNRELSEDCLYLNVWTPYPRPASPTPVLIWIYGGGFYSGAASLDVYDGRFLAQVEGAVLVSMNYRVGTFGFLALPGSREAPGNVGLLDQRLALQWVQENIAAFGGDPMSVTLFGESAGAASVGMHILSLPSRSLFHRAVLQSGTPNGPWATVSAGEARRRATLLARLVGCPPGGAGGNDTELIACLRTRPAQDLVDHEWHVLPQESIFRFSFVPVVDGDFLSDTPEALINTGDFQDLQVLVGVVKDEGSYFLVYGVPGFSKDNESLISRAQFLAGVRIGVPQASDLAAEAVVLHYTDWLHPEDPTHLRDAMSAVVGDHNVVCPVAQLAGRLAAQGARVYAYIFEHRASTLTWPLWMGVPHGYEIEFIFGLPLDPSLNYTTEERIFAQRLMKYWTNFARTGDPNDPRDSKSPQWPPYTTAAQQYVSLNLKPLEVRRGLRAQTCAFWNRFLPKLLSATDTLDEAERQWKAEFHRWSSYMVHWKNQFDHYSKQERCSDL

[2] = Antioxidant activity assessed as DPPH radical scavenging activity at 200 uM after 30 mins (reference value: 100%); type: functional
[3] = Antioxidant activity assessed as DPPH radical scavenging activity at 10 uM after 30 mins (reference value: 100%); type: functional
[4] = Antioxidant activity assessed as ABTS radical scavenging activity at 10 uM after 30 mins (reference value: 100%); type: functional
[5] = target: T1, Acetylcholinesterase (Mus musculus); experiment: Inhibition of AChE in Swiss mouse cerebral cortex homogenate using acetylthiocholine as substrate assessed as acetylthiocholine level per mg protein at 10 uM preincubated for 2 mins followed by substrate addition by DTNB based assay (reference value: 9.6 +/- 0.5 umol/hr)
[6] = Antioxidant activity assessed as ABTS radical scavenging activity at 1 uM after 30 mins (reference value: 100%); type: functional
[7] = Antioxidant activity assessed as DPPH radical scavenging activity at 1 uM after 30 mins (reference value: 100%); type: functional
[8] = target: T1, Acetylcholinesterase (Mus musculus); experiment: Inhibition of AChE in Swiss mouse cerebral cortex homogenate using acetylthiocholine as substrate assessed as acetylthiocholine level per mg protein at 1 uM preincubated for 2 mins followed by substrate addition by DTNB based assay (reference value: 9.6 +/- 0.5 umol/hr)
[9] = Antioxidant activity assessed as DPPH radical scavenging activity at 100 uM after 30 mins (reference value: 100%); type: functional
[10] = Antioxidant activity assessed as ABTS radical scavenging activity at 100 uM after 30 mins (reference value: 100%); type: functional
[11] = target: T1, Acetylcholinesterase (Mus musculus); experiment: as §1, with “100” for “200”, “umol/hr) (reference value: 9.6 +/- 0.5 umol/hr)” for “umol/hr)”
[12] = Antioxidant activity assessed as ABTS radical scavenging activity at 200 uM after 30 mins (reference value: 100%); type: functional
[13] = system: Mus musculus; experiment: Cognitive enhancement activity in Swiss mouse assessed as increase in step-through latency at 10 mg/kg, ig treated 30 mins before test session measured 24 hrs after training trial by passive avoidance test relative to control; type: functional
[14] = system: Mus musculus; experiment: Toxicity in Swiss mouse assessed as impairment in locomotory activity at 10 mg/kg, ig treated 30 mins before test session measured up to 4 mins by open-field test; type: organism-based; details: in vivo, po
[15] = system: Mus musculus; experiment: Cognitive enhancement activity in Swiss mouse assessed as increase in step-through latency at 10 mg/kg, ig treated immediately post-training measured 24 hrs after training trial by passive avoidance test relative to control; type: functional
[16] = system: Mus musculus; experiment: Toxicity in Swiss mouse assessed as impairment in locomotory activity at 10 mg/kg, ig treated 30 mins before training measured up to 4 mins by open-field test; type: organism-based; details: in vivo, po
[17] = system: Mus musculus; experiment: Toxicity in Swiss mouse assessed as impairment in exploratory behavior at 10 mg/kg, ig treated 30 mins before training measured up to 4 mins by open-field test; type: organism-based; details: in vivo, po
[18] = system: Mus musculus; experiment: Toxicity in Swiss mouse assessed as impairment in locomotory activity at 10 mg/kg, ig treated immediately post-training measured up to 4 mins by open-field test; type: organism-based; details: in vivo, po
[19] = system: Mus musculus; experiment: Toxicity in Swiss mouse assessed as impairment in exploratory behavior at 10 mg/kg, ig treated 30 mins before test session measured up to 4 mins by open-field test; type: organism-based; details: in vivo, po
[20] = system: Mus musculus; experiment: Cognitive enhancement activity in Swiss mouse assessed as step-through latency at 10 mg/kg, ig treated 30 mins before training measured 24 hrs after training trial by passive avoidance test; type: functional, organism-based
[21] = system: Mus musculus; experiment: Toxicity in Swiss mouse assessed as impairment in exploratory behavior at 10 mg/kg, ig treated immediately post-training measured up to 4 mins by open-field test; type: organism-based; details: in vivo, po
[22] = target: T1, Acetylcholinesterase (Mus musculus); experiment: Inhibition of AChE in Swiss mouse cerebral cortex homogenate using acetylthiocholine as substrate assessed as acetylthiocholine level per mg protein at 1 uM preincubated for 2 mins followed by substrate addition by DTNB based assay relative to acetylthiocholine
[23] = target: T1, Acetylcholinesterase (Mus musculus); experiment: Inhibition of AChE in Swiss mouse cerebral cortex homogenate using acetylthiocholine as substrate assessed as acetylthiocholine level per mg protein at 200 uM preincubated for 2 mins followed by substrate addition by DTNB based assay relative to acetylthiocholine

| SMILES | Activity [1] [µmol/h] | Activity [2] [%] | Activity [3] [%] | Activity [4] [%] | Activity [5] [µmol/h] | Activity [6] [%] | Activity [7] [%] | Activity [8] [µmol/h] | Activity [9] [%] | Activity [10] [%] | Activity [11] [µmol/h] | Activity [12] [%] | further results |
| --- | --- | --- | --- | --- | --- | --- | --- | --- | --- | --- | --- | --- | --- |
| COc1ccc([Se]c2ncnc3[nH]cnc23)cc1 | 8.8 | 97.5 | 99.7 | 98.1 | 11.3 | 101 | 99.8 | 10.4 | 98.5 | 97.1 | 11 | 93.5 | – |
| FC(F)(F)c1cccc([Se]c2ncnc3[nH]cnc23)c1 | 8.2 | 99 | 99.4 | 98.9 | 8.9 | 99.4 | 99.7 | 7.9 | 99.4 | 97.9 | 8.2 | 97.6 | – |
| c1ccc([Se]c2ncnc3[nH]cnc23)cc1 | 7.6 | 90.1 | 99.4 | 98.8 | 7.6 | 99.9 | 99.4 | 7.8 | 95.1 | 93.2 | 7.7 | 86.5 | – |
| Cc1ccc([Se]c2ncnc3[nH]cnc23)cc1 | 8.9 | 93 | 99.7 | 98 | 9.3 | 100 | 101 | 8.7 | 96.3 | 81.7 | 8.9 | 61.5 | – |
| Fc1ccc([Se]c2ncnc3[nH]cnc23)cc1 | 6.6 | 98 | 99.4 | 101 | 6.5 | 99.7 | 99.4 | 6.6 | 98.6 | 99.7 | 6.6 | 96.9 | Activity [13]: 44%; Activity [14]: Non-Toxic; Activity [15]: 52%; Activity [16]: Non-Toxic; Activity [17]: Non-Toxic; Activity [18]: Non-Toxic; Activity [19]: Non-Toxic; Activity [20]: inactive; Activity [21]: Non-Toxic; Imax [22]: 31.2% |
| Cc1ccccc1[Se]c1ncnc2[nH]cnc12 | 6.3 | 98.7 | 100 | 96.9 | 7.6 | 99.3 | 100 | 7.9 | 99.3 | 97.7 | 7.1 | 94.8 | Imax [23]: 34.4% |
| Clc1ccc([Se]c2ncnc3[nH]cnc23)cc1 | 7.8 | 68 | 98.8 | 98.4 | 7.3 | 99.5 | 100 | 7.2 | 85.9 | 86.5 | 7.8 | 72.6 | – |
